Test results as given in patent publication US12479843B2, “Spiro ring-containing quinazoline compounds” (WIGEN BIOMEDICINE TECHNOLOGY (SHANGHAI) CO., LTD., priority 2019, dated 2025).

Experiments:
H358 cells = experiment: Antiproliferative activity against H358 cells (Cell Titer Glow, ultra-low attachment plate); format: cell-based; conditions: Homo sapiens, NCI-H358, 72 h, 96-well ultra-low attachment plate, three days after addition of compound, Cell Titer Glow
Description: 2500 H358 cells were seeded in a 96-well ultra-low attachment plate (corning, 7007). After one day of growth, a serially diluted compound (a maximum concentration of 5 μM, 5-fold dilution, a total of five doses) was added. Three days after the addition of the compound, Cell Titer Glow (Promega, G9681) was added to evaluate pellet growth, and the IC50 value was calculated.

pERK level in H358 cells = experiment: pERK and ERK protein content assay in H358 cells (ELISA); format: cell-based; conditions: Homo sapiens, NCI-H358, compound 1 μM, 24 h, pERK/ERK ratio compared with DMSO group, read-out: Inhibition rate (%) of pERK level
In short: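 H358 cells grown one day, then treated 24 h with compound at 1 μM. pERK and ERK in lysates measured by ELISA; pERK/ERK ratio expressed as percent inhibition versus DMSO.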

| Compound | IC50 (H358 cells) [µM] | inhibition at 1 µM (pERK level in H358 cells) [%] |
| --- | --- | --- |
| C=CC(=O)N1CC2(CCN(c3nc(N4CC5(CC(C#N)C5)C4)nc4c(OCC(F)(F)F)c(-c5c(C)ccc6[nH]ncc56)c(C5CC5)cc34)CC2)C1 [Compound 285] | 0.3 to 1 | 50 to 90 |
| C=CC(=O)N1CC2(CCN(c3nc(N4CC5(CC(N(C)C)C5)C4)nc4c(OCC(F)(F)F)c(-c5c(C)ccc6[nH]ncc56)c(C5CC5)cc34)CC2)C1 [Compound 286] | < 0.3 | > 90 |
| C=CC(=O)N1CC2(CCN(c3nc(N4CC5(CC(N6CCC6)C5)C4)nc4c(OCC(F)(F)F)c(-c5c(C)ccc6[nH]ncc56)c(C5CC5)cc34)CC2)C1 [Compound 287] | < 0.3 | > 90 |
| C=CC(=O)N1CC2(CCN(c3nc(N4CC5(CC(N6CC(C)C6)C5)C4)nc4c(OCC(F)(F)F)c(-c5c(C)ccc6[nH]ncc56)c(C5CC5)cc34)CC2)C1 [Compound 288] | < 0.3 | > 90 |
| C=CC(=O)N1CC2(CCN(c3nc(N4CC5(CC(N6CCCC6)C5)C4)nc4c(OCC(F)(F)F)c(-c5c(C)ccc6[nH]ncc56)c(C5CC5)cc34)CC2)C1 [Compound 289] | < 0.3 | > 90 |
| C=CC(=O)N1CC2(CCN(c3nc(N4CC5(CC(N6CCC[C@@H]6C)C5)C4)nc4c(OCC(F)(F)F)c(-c5c(C)ccc6[nH]ncc56)c(C5CC5)cc34)CC2)C1 [Compound 290] | < 0.3 | > 90 |
| C=CC(=O)N1CC2(CCN(c3nc(N4CC5(CC(N6CCC[C@H]6C)C5)C4)nc4c(OCC(F)(F)F)c(-c5c(C)ccc6[nH]ncc56)c(C5CC5)cc34)CC2)C1 [Compound 291] | < 0.3 | > 90 |
| C=CC(=O)N1CC2(CCN(c3nc(N4CC5(CC(N6CCC(C)C6)C5)C4)nc4c(OCC(F)(F)F)c(-c5c(C)ccc6[nH]ncc56)c(C5CC5)cc34)CC2)C1 (centres unmarked) [Compound 292] | < 0.3 | > 90 |
| C=CC(=O)N1CC2(CCN(c3nc(N4CC5(CC(N6CC[C@@H](C)C6)C5)C4)nc4c(OCC(F)(F)F)c(-c5c(C)ccc6[nH]ncc56)c(C5CC5)cc34)CC2)C1 [Compound 293] | < 0.3 | > 90 |
| C=CC(=O)N1CC2(CCN(c3nc(N4CC[C@H](N5CC(C)C5)C4)nc4c(OCC(F)(F)F)c(-c5c(C)ccc6[nH]ncc56)c(C5CC5)cc34)CC2)C1 [Compound 296] | < 0.3 | > 90 |
| C=CC(=O)N1CC2(CCN(c3nc(N4CC[C@@H](N5CC(C)C5)C4)nc4c(OCC(F)(F)F)c(-c5c(C)ccc6[nH]ncc56)c(C5CC5)cc34)CC2)C1 [Compound 297] | < 0.3 | > 90 |
| C=CC(=O)N1CC2(CCN(c3nc(N4CC[C@H](N5CCC(C)C5)C4)nc4c(OCC(F)(F)F)c(-c5c(C)ccc6[nH]ncc56)c(C5CC5)cc34)CC2)C1 (some centres unmarked) [Compound 298] | < 0.3 | > 90 |
| C=CC(=O)N1CC2(CCN(c3nc(N4CC[C@H](N5CC[C@@H](C)C5)C4)nc4c(OCC(F)(F)F)c(-c5c(C)ccc6[nH]ncc56)c(C5CC5)cc34)CC2)C1 [Compound 300] | < 0.3 | > 90 |
| C=CC(=O)N1CC2(CCN(c3nc(N4CC[C@@H](N5CC[C@@H](C)C5)C4)nc4c(OCC(F)(F)F)c(-c5c(C)ccc6[nH]ncc56)c(C5CC5)cc34)CC2)C1 [Compound 301] | < 0.3 | > 90 |
| C=CC(=O)N1CC2(CCN(c3nc(N4CC[C@H](N5C6CCC5CC6)C4)nc4c(OCC(F)(F)F)c(-c5c(C)ccc6[nH]ncc56)c(C5CC5)cc34)CC2)C1 [Compound 302] | < 0.3 | > 90 |
| C=CC(=O)N1CC2(CCN(c3nc(N4CC[C@@H](N5C6CCC5CC6)C4)nc4c(OCC(F)(F)F)c(-c5c(C)ccc6[nH]ncc56)c(C5CC5)cc34)CC2)C1 [Compound 303] | < 0.3 | > 90 |
| C=CC(=O)N1CC2(CCN(c3nc(N4CC5(CSC5)C4)nc4c(OCC(F)(F)F)c(-c5c(C)ccc6[nH]ncc56)c(C5CC5)cc34)CC2)C1 [Compound 304] | 0.3 to 1 | 50 to 90 |
| C=CC(=O)N1CC2(CCN(c3nc(N4CC5(C4)C[S+]([O-])C5)nc4c(OCC(F)(F)F)c(-c5c(C)ccc6[nH]ncc56)c(C5CC5)cc34)CC2)C1 [Compound 305] | 0.3 to 1 | 50 to 90 |
| C=CC(=O)N1CC2(CCN(c3nc(N4CC5(C4)CS(=O)(=O)C5)nc4c(OCC(F)(F)F)c(-c5c(C)ccc6[nH]ncc56)c(C5CC5)cc34)CC2)C1 [Compound 306] | < 0.3 | > 90 |

| Compound | IC50 (H358 cells) [µM] | inhibition at 1 µM (pERK level in H358 cells) [%] |
| --- | --- | --- |
| C=CC(=O)N1CC2(CCN(c3nc(N4CC5(CCS(=O)(=O)CC5)C4)nc4c(OCC(F)(F)F)c(-c5c(C)ccc6[nH]ncc56)c(C5CC5)cc34)CC2)C1 [Compound 307] | < 0.3 | > 90 |
| C=CC(=O)N1CC2(CCN(c3nc(OC4CC5CCC4N5C)nc4c(OCC(F)(F)F)c(-c5c(C)ccc6[nH]ncc56)c(C5CC5)cc34)CC2)C1 (centres unmarked) [Compound 308] | < 0.3 | > 90 |
| C=CC(=O)N1CC2(CCN(c3nc(OC4CC5CCC4N5CCOC)nc4c(OCC(F)(F)F)c(-c5c(C)ccc6[nH]ncc56)c(C5CC5)cc34)CC2)C1 (centres unmarked) [Compound 309] | < 0.3 | > 90 |
| C=CC(=O)N1CC2(CCN(c3nc(OC4CCS(=O)(=O)C5(CC5)C4)nc4c(OCC(F)(F)F)c(-c5c(C)ccc6[nH]ncc56)c(C5CC5)cc34)CC2)C1 (centres unmarked) [Compound 310] | 0.3 to 1 | 50 to 90 |
| C=CC(=O)N1CC2(CCN(c3nc(OC4CCS(=O)(=O)C(C)(C)C4)nc4c(OCC(F)(F)F)c(-c5c(C)ccc6[nH]ncc56)c(C5CC5)cc34)CC2)C1 (centres unmarked) [Compound 311] | < 0.3 | > 90 |
| C=CC(=O)N1CC2(CCN(c3nc(OC4CC5CCC(C4)S5(=O)=O)nc4c(OCC(F)(F)F)c(-c5c(C)ccc6[nH]ncc56)c(C5CC5)cc34)CC2)C1 (centres unmarked) [Compound 312] | < 0.3 | > 90 |
| C=CC(=O)N1CC2(CCN(c3nc(OC4C5CCC4CS(=O)(=O)C5)nc4c(OCC(F)(F)F)c(-c5c(C)ccc6[nH]ncc56)c(C5CC5)cc34)CC2)C1 (centres unmarked) [Compound 313] | < 0.3 | > 90 |
| C=CC(=O)N1CC2(CCN(c3nc(O[C@H]4C[C@@H]5C[C@H]4CS5(=O)=O)nc4c(OCC(F)(F)F)c(-c5c(C)ccc6[nH]ncc56)c(C5CC5)cc34)CC2)C1 [Compound 314] | < 0.3 | > 90 |
| C=CC(=O)N1CC2(CCN(c3nc(O[C@@H]4C[C@@H]5C[C@H]4CS5(=O)=O)nc4c(OCC(F)(F)F)c(-c5c(C)ccc6[nH]ncc56)c(C5CC5)cc34)CC2)C1 [Compound 315] | < 0.3 | > 90 |
| C=CC(=O)N1CC2(CCN(c3nc(OC4CCS(=O)(=O)CC4C)nc4c(OCC(F)(F)F)c(-c5c(C)ccc6[nH]ncc56)c(C5CC5)cc34)CC2)C1 (centres unmarked) [Compound 316] | < 0.3 | > 90 |
| C=CC(=O)N1CC2(CCN(c3nc(OC4C(C)CS(=O)(=O)CC4C)nc4c(OCC(F)(F)F)c(-c5c(C)ccc6[nH]ncc56)c(C5CC5)cc34)CC2)C1 (centres unmarked) [Compound 317] | < 0.3 | > 90 |
| C=CC(=O)N1CC2(CCN(c3nc(O[C@@H]4CCS(=O)(=O)C[C@H]4N(C)C)nc4c(OCC(F)(F)F)c(-c5c(C)ccc6[nH]ncc56)c(C5CC5)cc34)CC2)C1 [Compound 318] | < 0.3 | > 90 |
| C=CC(=O)N1CC2(CCN(c3nc(O[C@H]4CCS(=O)(=O)C[C@@H]4N(C)C)nc4c(OCC(F)(F)F)c(-c5c(C)ccc6[nH]ncc56)c(C5CC5)cc34)CC2)C1 [Compound 319] | < 0.3 | > 90 |
| C=CC(=O)N1CC2(CCN(c3nc(N4CC(N5CCC5)C4)nc4c(OCC(F)(F)F)c(-c5c(C)ccc6[nH]ncc56)c(C(=C)C)cc34)CC2)C1 [Compound 320] | < 0.3 | > 90 |
| C=CC(=O)N1CC2(CCN(c3nc(N4CC(N5CCCC5)C4)nc4c(OCC(F)(F)F)c(-c5c(C)ccc6[nH]ncc56)c(C(=C)C)cc34)CC2)C1 [Compound 321] | < 0.3 | > 90 |
| C=CC(=O)N1CC2(CCN(c3nc(N4CC(N5CCC5)C4)nc4c(OCC(F)(F)F)c(-c5c(C)ccc6[nH]ncc56)c(C5(C)CC5)cc34)CC2)C1 [Compound 322] | < 0.3 | > 90 |
| C=CC(=O)N1CC2(CCN(c3nc(N4CC(N5CCCC5)C4)nc4c(OCC(F)(F)F)c(-c5c(C)ccc6[nH]ncc56)c(C5(C)CC5)cc34)CC2)C1 [Compound 323] | < 0.3 | > 90 |
| C=CC(=O)N1CC2(CCN(c3nc(N4CC(N5CCC(C)C5)C4)nc4c(OCC(F)(F)F)c(-c5c(C)c(C)cc6[nH]ncc56)c(C5CC5)cc34)CC2)C1 (centres unmarked) [Compound 324] | < 0.3 | > 90 |
